Source: publication PMC7769561, “Antileishmanial activity of synthetic analogs of the naturally occurring quinolone alkaloid N-methyl-8-methoxyflindersin” (PLoS ONE, 2020)
Converted amounts (≈) assume the structure as drawn. “And” between values parts separate entries of the source, which are not always exact repeats. Equal values may be shown once. “Also recorded” adds a separate entry of the source. Read-outs that look alike come from different tables or passages of the source.

Columns and labels:
hMDMs = experiment: Cytotoxicity in hMDMs (resazurin, 72 h); conditions: class by CC50
Experimental: (§1) We isolated hMDMs from buffy coats donated by the Institute of Local Science (Biotechnology and Health Innovation, Bogotá, Colombia) and spun them in Lymphoprep density gradient medium (Stem-Cell, Vancouver, Canada).
(§2) Next, we added 100 μL of this culture to each quinoline alkaloid–like compound at a concentration of 200, 20, 2, 0.2, and 0.02 μg/mL. […] Cells treated with amphotericin B (Sigma-Aldrich) were used as cell apoptosis (positive) controls. Results were expressed as the medial cytotoxic concentration (CC50) using Prism GraphPad software for nonlinear regression analysis (https://www.graphpad.com/scientific-software/prism/).
(§3) All assays required at least three independently duplicated experiments. We determined cytotoxicity against hMDMs and effectivity in L. (V) panamensis promastigotes according to each treatment’s mortality (compound and concentration) using Eq 1, where the control mean fluorescence intensity (MFI) was 100% viability: Validityinhibition(%)=100−[MIFexposedcells/MIFunexposedcells×100] (1)
(§4) We used GraphPad Prism nonlinear regression analysis to estimate the percentage mortality with regard to CC50 and EC50. […] The antileishmanial activity with regard to promastigotes was classified as active according to Eq 2: Active=EC50<[LC50/2], (2) where LC50 is the median lethal concentration. We also used GraphPad Prism nonlinear regression analysis to determine the intracellular antileishmanial activity (concentration vs. response), depending on the infection (number of infected cells) and parasite burden (number of parasites/cell) obtained in experimental conditions. Parasite inhibition was estimated using Eq 3, where the plate MFI is 100% parasites: Infectioninhibition(%)=100−[(MIFexposedparasites/MIFunexposedparasites×100)] (3)

[1] = system: L. (V.) panamensis promastigotes; experiment: Antileishmanial activity in L. (V.) panamensis promastigotes (resazurin, 72 h); assay type: cell-based, Leishmania (Viannia) panamensis
Experimental: They were treated with quinoline alkaloid–like compounds at a concentration of 100, 10, 1, 0.1, and 0.01 μg/mL for 72 h at 26°C. Next, we determined antileishmanial activity using the resazurin method (Sigma-Aldrich). Promastigotes treated with amphotericin B (Sigma-Aldrich) and pentamidine (Sanofi-Aventis, Gentilly, France) were used as parasite death (positive) controls. Results were expressed as the medial effective concentration (EC50) using Prism GraphPad software for nonlinear regression analysis (https://www.graphpad.com/scientific-software/prism/).
as §3, §4

[2] = system: L. (V.) panamensis intracellular amastigotes; experiment: Antileishmanial activity in L. (V.) panamensis intracellular amastigotes in hMDMs; assay type: cell-based, Leishmania (Viannia) panamensis; conditions: for SI (selectivity index = CC50/EC50): CC50 hMDMs / EC50 intracellular amastigotes; for EC50 Intracellular amastigotes: amastigotes in hMDMs, 72 h, ± SD
Experimental: Next, 100 μL of the suspension was cultured in 96-well plates and infected with L. (V.) panamensis promastigotes (HMOM/COL/87/UA-140) at a 10:1 parasite:cell ratio. We incubated the plates in a 5% CO2 atmosphere for 4 h at 35°C. After incubation, we removed noninternalized parasites by washing the cells with 0.9% NaCl saline solution (Baxter International, Deerfield, IL, USA). The cells were incubated again for 24 h and then treated with each quinoline alkaloid–like compound at a concentration of 100, 10, 1, 0.1, and 0.01 μg/mL in a 5% CO2 atmosphere for 72 h at 36°C. Next, we quantified the percentage of infected cells using fluorescence microscopy, as previously described by Pérez-Cordero in 2011 [23], and quantified the parasite load (amount of intracellular promastigotes and amastigotes per cell) using Giemsa staining and flow cytometry (Cytomics FC 500 MPL; Beckman Coulter, Brea, CA, USA). […] Results were expressed as EC50 using Prism GraphPad software’s probit nonlinear regression analysis (https://www.graphpad.com/scientific-software/prism/).
as §4
The percentage inhibition was used to calculate EC50 by nonlinear regression analysis (fluorescence microscopy), while the parasite burden was evaluated as the percentage of intracellular promastigotes and amastigotes in 100 infected cells (Giemsa staining). […] The selectivity index (SI) was estimated using the following formula: SI=CC50/EC50

[3] = system: L. (V.) panamensis-infected hMDMs; experiment: NO production in L. (V.) panamensis-infected hMDMs (DAF-FM flow cytometry); assay type: cell-based, human; conditions: compound at EC50, 24, 48 and 72 h
Experimental: (§5) Next, we detached the cells with ethylenediaminetetraacetic acid (EDTA)/trypsin (Lonza, MD, USA) and 2',7'-dichlorodihydrofluorescein diacetate (H2DCFDA) tagged on a 5 μM fluorescent tube (Sigma-Aldrich) in order to identify intracellular ROS and/or 4-amino-5-methylamino-2′,7′-difluorofluorescein (DAF-FM; Sigma-Aldrich) for NO production in a 5% CO2 atmosphere for 45 min at 37°C. ROS and NO were quantified using flow cytometry (FACS Canto II) at a wavelength of 480 nm. Untreated cells were used as negative controls, while cells treated with 0.0001% H2O2 and 1 μM phorbol myristate acetate were used as ROS production (positive) controls. LPS (10 ng/mL) and phytohemagglutinin (PHA-M) (10 μL/mL) (Invitrogen) were used as positive controls for NO production.

[4] = system: L. (V.) panamensis (MHOM/COL/87/UA140-EGFP); experiment: Therapeutic in vivo response in hamsters with experimental cutaneous leishmaniasis; design: species or system golden hamster (Mesocrisetus auratus)
Description: We used a golden hamster (Mesocrisetus auratus) model to evaluate the therapeutic response of synthetic alkaloid compounds 2 and 8. Male and female 6-week-old hamsters with a mean live weight (LW) of 120 g were infected by a dorsal intradermic injection of L. (V.) panamensis (MHOM/COL/87/UA140-EGFP) promastigotes. After the infected hamsters developed ulcers, they were randomly divided into three groups (n = 6 each) and treated topically with 1% ointment formulated from compounds 2 and 8.
(§6) The hamsters were monitored every 4 weeks to assess their appearance and weight and the lesion size. We categorized each compound’s effectiveness pre- and posttreatment as follows: (i) cure (complete disappearance of lesions), (ii) improvement (>10% reduced lesion area), and (iii) therapeutic failure or nonresponse (increased lesion size). The health status was monitored weekly for 3 months (12 weeks) posttreatment. After 3 months, the hamsters were euthanized in a CO2 chamber. We performed histopathological analysis after necropsy of the affected tissues and organs. In addition, we evaluated treatment cytotoxicity using LW monitoring and biochemical parameters (alanine aminotransferase [ALT], creatinine, and blood urea nitrogen [BUN]) pretreatment and 45 days after ointment administration.
The in vivo efficacy of compounds 1, 2, and 8 was expressed as a percentage cure, improvement, or nonresponse compared to the beginning of treatment. Efficacy was evaluated in vivo to compare percentages, the frequency of change, and treatment cytotoxicity in the hamster model. We used GraphPad Prism to determine ROS and NO production and the apoptotic cell percentage. One- or two-way analysis of variance (ANOVA; response–time kinetics) was used to compare treatments after confirming normal data distribution. P < 0.05 was considered statistically significant by comparing untreated cells (experiments on untreated hMDMs) with infected cells (experiments on untreated and treated hMDMs).

[5] = Cytotoxicity in hMDMs (resazurin, 72 h); conditions: human
Experimental: as §1, §2, §3, §4

[6] = Treatment toxicity in hamsters (live weight, ALT, creatinine, BUN); assay type: in vivo, golden hamster (Mesocrisetus auratus)
Description: as §6

[7] = system: L. (V.) panamensis-infected hMDMs; experiment: Transmission electron microscopy of L. (V.) panamensis-infected hMDMs; assay type: cell-based, human; conditions: compound at EC50, 72 h, TEM; for Cell membrane (ultrastructural modification grade): key: -: no alteration/absence; +: low alteration/low presence; ++: alteration/moderate presence; +++: serious disturbance/abundant presence; for LB (lipid bodies, grade): key: -: no alteration/absence; +: low alteration/low presence; ++: alteration/moderate presence; +++: serious disturbance/abundant presence; for Mitochondria (ultrastructural modification grade): key: -: no alteration/absence; +: low alteration/low presence; ++: alteration/moderate presence; +++: serious disturbance/abundant presence; for Nucleus (ultrastructural modification grade): key: -: no alteration/absence; +: low alteration/low presence; ++: alteration/moderate presence; +++: serious disturbance/abundant presence
Description: (§7) This procedure involved including fresh resin and 100–200-nm-wide ultrafine cuts observed by TEM (100X–10.000X) (HITACHI-HU-12; Hitachi, Tokyo, Japan).

[8] = system: L. (V.) panamensis intracellular amastigotes; experiment: Transmission electron microscopy of L. (V.) panamensis intracellular amastigotes in hMDMs; assay type: cell-based, Leishmania (Viannia) panamensis; design: Nucleus (ultrastructural alteration grade) / Vacuoles (ultrastructural alteration grade): key: -: no alteration/absence; +: low alteration/low presence; ++: alteration/moderate presence; +++: serious disturbance/abundant presence; conditions: compound at EC50, 72 h, TEM
Description: as §7

[9] = system: L. (V.) panamensis-infected hMDMs; experiment: ROS generation in L. (V.) panamensis-infected hMDMs (H2DCFDA flow cytometry); assay type: cell-based, human; conditions: compound at EC50, 4, 24, 48 and 72 h
Experimental: as §5

[10] = L. (V.) panamensis promastigotes, ± SD
[11] = L. (V.) panamensis promastigotes, ± SD, read-out: EC50 Intracellular promastigotes (converted)
[12] = hamsters, topical 1% ointment, 3 months posttreatment, n = 6

SMILES: CCCc1c(CC)nc2ccccc2c1C(=O)O [Compound 3, carboxylic acid 2-ethyl-3-propyl-4-quinolinine]
- Cytotoxicity class toward hMDMs (hMDMs): moderate (moderate if CC50 from 100 to <200 μg/mL)
- EC50 Intracellular promastigotes [1, 10]: 93.8 ± 6.3 µg/mL (≈ 386 µM)
- EC50 [1, 11]: 496 µM
- SI (selectivity index = CC50/EC50) [2]: 1.27
- EC50 Intracellular amastigotes [2]: 121.9 ± 6.2 µg/mL (≈ 501 µM)

SMILES: COc1ccc2c(OC)c3ccoc3nc2c1OC [Compound 5, 4,7,8-trimetoxifure [2,3-b]-quinoline]
- EC50 Intracellular promastigotes [1, 10]: 66.4 ± 13 µg/mL (≈ 256 µM)
- EC50 [1, 11]: 256 µM
- SI (selectivity index = CC50/EC50) [2]: 1.73
- EC50 Intracellular amastigotes [2]: 61.7 ± 1.1 µg/mL (≈ 238 µM)

SMILES: COc1ccccc1-c1cc(C(=O)O)c2ccc(C)c(C)c2n1 [Compound 6, carboxylic acid-7,8-tetrahydro-quinoline]
- EC50 Intracellular promastigotes [1, 10]: 61.3 ± 29.6 µg/mL (≈ 199 µM)
- EC50 [1, 11]: 240 µM
- SI (selectivity index = CC50/EC50) [2]: 1.89
- EC50 Intracellular amastigotes [2]: 46.5 ± 9.4 µg/mL (≈ 151 µM)

SMILES: Cc1cc2ncccc2c2nc(N)n(C)c12 [Compound 7, 3,4-dimethyl-3H-imidazol [4.5f]-quinoline-2-amine]
- EC50 Intracellular promastigotes [1, 10]: 26.5 ± 5.8 µg/mL (≈ 125 µM)
- EC50 [1, 11]: 134 µM
- SI (selectivity index = CC50/EC50) [2]: 1.70
- EC50 Intracellular amastigotes [2]: 55.8 ± 8.3 µg/mL (≈ 263 µM)

SMILES: Nc1ccc2cccc(O)c2n1 [Compound 8, 2-amino-8-hydroxyquinoline]
- NO production compared to untreated infected hMDMs [3]: do not modulate the induction of NO production
- Histopathologic analysis of the skin, cured hamsters ([4]; hamsters cured by treatment, hematoxylin/eosin): mixed leucocyte infiltratation
- Lesion size during treatment ([4]; hamsters, topical 1% ointment): significantly reduced lesions
- Improvement (reduced lesion size), percentage of the experimental group [4, 12]: 50%
- No effect (poor response), percentage of the experimental group [4, 12]: 16.6%
- Total cure (healing), percentage of the experimental group [4, 12]: 33.3%
- CC50 at 72 h [5]: 5.5 µg/mL and 34 µM
- Cytotoxicity class toward hMDMs (hMDMs): high (high if CC50 < 100 μg/mL)
- Serum BUN level ([6]; compared to before treatment): significantly decreased
- Cytotoxicity-related clinical manifestations ([6]; topical 1% ointment): No cytotoxicity-related clinical manifestations
- Live weight posttreatment ([6]; topical 1% ointment): no evident changes during treatment
- EC50 ([1]; read-out: EC50 Intracellular promastigotes): 1.6 µg/mL and 10 µM
- Antileishmanial activity class ([2]; intracellular amastigotes, class by EC50): high (high if EC50 < 25 μg/mL)
- Cell membrane (ultrastructural modification grade) [7]: -
- LB (lipid bodies, grade) [7]: -
- Mitochondria (ultrastructural modification grade) [7]: +
- Nucleus (description) [7]: Abnormal distribution of chromatin; also recorded: Nuclear membrane alteration
- Nucleus (ultrastructural modification grade) [7]: +++
- PV (description) [7]: Individuals, attached to the parasite
- PV (parasitophorous vacuoles, grade) [7]: +
- Parasites (grade) [7]: +
- Vacuoles (description) [7]: Double membrane (autophagic-digestives)
- Vacuoles (ultrastructural modification grade) [7]: +++
- Cell membrane (ultrastructural alteration grade) [8]: -
- Flagellum (flagellar/axonema pocket) (description) [8]: Membrane swelling
- Flagellum (flagellar/axonema pocket) (grade) [8]: +++
- LB (lipid bodies, grade) [8]: -
- Mitochondria/Kinetoplasts (description) [8]: Membrane swelling
- Mitochondria/Kinetoplasts (ultrastructural alteration grade) [8]: +++
- Nucleus (description) [8]: Abnormal distribution of chromatine
- Nucleus (ultrastructural alteration grade) [8]: ++
- PV (description) [8]: Individuals attached to the parasite
- PV (parasitophorous vacuoles, grade) [8]: +
- Vacuoles (description) [8]: Double membrane (autophagic-digestives)
- Vacuoles (ultrastructural alteration grade) [8]: +++
- ROS generation compared to infected control cells [9]: no significant variations
